≈ marks a conversion by molar mass, not a printed value. Read-outs that look alike come from different tables or passages of the source. Where a SMILES comes first, the peptide text is derived from it. Bridges are numbered along the chain shown (N, C = ends). [ ]: non-standard residue; d: D form. Lys(N3) = [N-]=[N+]=NCCCC[C@H](N)C(=O)O; Gla = N[C@@H](CC(C(=O)O)C(=O)O)C(=O)O; R8 = C=CCCCCCC[C@@](C)(N)C(=O)O; Cba = N[C@@H](CC1CCC1)C(=O)O; S5 = C=CCCC[C@](C)(N)C(=O)O; Aib = CC(C)(N)C(=O)O; βAla = NCCC(=O)O
Tests used:
[1] = test system: HCT116
[2] = Circular dichroism (CD) helicity; format: physicochemical
Protocol: The dried peptide was reconstituted in a buffer containing 1 mM HEPES pH 7.4 and 5% methanol to a concentration of 1 mM. The peptide sample was placed in a quartz cuvette with a path length of 0.2 cm and a CD spectrum was recorded from 300 to 190 nm at 25° C. using the Chirascan-plus qCD machine (Applied Photophysics). The actual concentration of the peptide was determined by the absorbance of the peptide at […]. An estimate of the secondary structure components of the peptide was carried out by converting the CD spectrum to mean residue ellipticity before deconvoluting using the CDNN software (distributed by Applied Photophysics). All experiments were done in duplicate.

[3] = test system: HCT116 cells; test: Lactate dehydrogenase release assay (LDH); format: cell-based
Protocol: HCT116 cells were seeded into a 384-well plate at a density of 8000 cells per well. Cells were maintained in McCoy's 5A Medium with 10% fetal bovine serum (FBS), Blasticidin and Penicillin/Streptomycin. The cells were incubated overnight followed by the removal of cell media and the addition of Opti-MEM Medium without FBS. Cells were then treated with peptides for 4/16 hours in Opti-MEM either in 10% FBS or serum free. Final concentration of DMSO was 0.5%. Lactate dehydrogenase release was detected using CytoTox-ONE Homogenous Membrane Integrity Assay Kit (Promega) as per manufacturer's instructions. Measurements were carried out using Tecan plate reader. Maximum LDH release was defined as the amount of LDH released induced by the lytic peptide (iDNA79) and used to normalize the results.

[4] = test system: p53 (HCT116 cells stably transfected with a p53 responsive β-lactamase reporter); test: p53 beta-lactamase reporter gene cellular functional assay; format: cell-based
Protocol: HCT116 cells were stably transfected with a p53 responsive β-lactamase reporter, and were seeded into a 384-well plate at a density of 8,000 cells per well. Cells were maintained in McCoy's 5A Medium with 10% fetal bovine serum ([…]), Blasticidin and Penicillin/Streptomycin. The cells were incubated overnight and followed by removal of cell growth media and replaced with Opti-MEM either containing 0% FBS or 10% FBS. Peptides were then dispensed to each well using a liquid handler, ECHO 555 and incubated for 4/16 hours. Final working concentration of dimethyl sulfoxide (DMSO) was 0.5%. β-Lactamase activity was detected using the ToxBLAzer Dual Screen (Invitrogen) as per manufacturer's instructions. Measurements were done using Envision multiplate reader (Perkin-Elmer). Maximum p53 activity was defined as the amount of β-lactamase activity induced by 50 μM azide-ATSP-7041 (stapled p53 peptide; Aileron Therapeutics, Inc.). This was determined as the highest amount of p53 activity induced by azide-ATSP-7041 by titration on HCT116 cells.

[5] = biological target: T1, MDM2 (1-125; SEQ ID NO 14) (Homo sapiens, UniProt Q00987); test: MDM2 binding assay (fluorescence anisotropy competition, FP)
T1 construct: GST (N); His6 (internal); TEV cleavage site ENLYFQG (internal); made in house; host or cells: E. coli BL21 (DE3) Rosetta T1R
Protocol: [P] is the protein concentration (MDM2), [L] is the labeled peptide concentration, r is the anisotropy measured, r0 is the anisotropy of the free peptide, rb is the anisotropy of the MDM2-FAM-labeled peptide complex, Kd is the dissociation constant, [L]t is the total FAM labeled peptide concentration, and [P]t is the total MDM2 concentration. […] The competing molecules were then titrated against the complex of the FAM-labeled peptide and protein. Apparent Kd values were determined by fitting the experimental data to the equations shown below:
[L]st and [L]t denote labeled ligand and total unlabeled ligand input concentrations, respectively. Kd2 is the dissociation constant of the interaction between the unlabeled ligand and the protein. In all competition experiments, it is assumed that [P]t>[L]st, otherwise considerable amounts of free labeled ligand would always be present and would interfere with measurements. […] The FAM-labeled peptide was dissolved in dimethyl sulfoxide (DMSO) at 1 mM and diluted into experimental buffer. Readings were carried out with an Envision Multilabel Reader (PerkinElmer). […] All titrations were carried out in triplicate. Curve-fitting was carried out using Prism 4.0 (GraphPad). […] Negative control titrations of the ligands under investigation were also carried out with the fluorescently labeled peptide (in the absence of MDM2) to ensure no interactions were occurring between the ligands and the FAM-labeled peptide.

[6] = test system: Jump-In T-REx CHO-K1 BLA cells; test: Tetracycline beta-lactamase reporter gene assay (counter screen); format: cell-based
Protocol: Based on Jump-In™ T-REx™ CHO-K1 BLA cells and contain a stably integrated β-lactamase under the control of an inducible CMV promoter. Cells were seeded into a 384-well plate a density of 4000 cells per well. Cells were maintained in Dulbecco's Minimal Eagle Medium (DMEM) with 10% fetal bovine serum (FBS), Blasticidin and Penicillin/Streptomycin. The cells were incubated for 24 hours, followed by cell media removal and replacement with Opti-MEM either containing 10% FBS or 0% FBS. Peptides were then dispensed to each well using a liquid handler, ECHO 555 and incubated for 4/16 hours. Final working concentration of DMSO was 0.5%. β-Lactamase activity was detected using the ToxBLAzer Dual Screen (Invitrogen) as per manufacturer's instructions. Measurements were carried out using Envision multiplate reader (Perkin Elmer). Counter Screen activity was defined as the amount of 0-lactamase activity induced by tetracycline.

[7] = Solubility (PBS, pH 7); conditions: for solubility: PBS, pH 7
[8] = test system: p53 null Ca Ski; conditions: for % inhibition at maximum concentration in p53 null negative control cell line: maximum assay concentration (50 uM)
[9] = HPLC LogD
[10] = read-out: HCT116 proliferation EC50, 72 h, 10% serum

T1 sequence (Q00987 with tags, fused parts or gaps): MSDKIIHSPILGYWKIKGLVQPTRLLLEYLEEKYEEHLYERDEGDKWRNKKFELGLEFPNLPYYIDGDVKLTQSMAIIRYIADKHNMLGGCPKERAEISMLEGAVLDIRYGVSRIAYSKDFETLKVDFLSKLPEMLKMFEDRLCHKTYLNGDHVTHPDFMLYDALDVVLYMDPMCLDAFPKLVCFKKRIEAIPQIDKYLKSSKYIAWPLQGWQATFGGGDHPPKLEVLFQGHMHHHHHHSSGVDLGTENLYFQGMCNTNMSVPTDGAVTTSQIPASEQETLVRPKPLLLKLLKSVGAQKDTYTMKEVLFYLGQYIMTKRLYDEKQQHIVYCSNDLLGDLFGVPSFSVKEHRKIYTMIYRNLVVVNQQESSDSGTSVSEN

SMILES | HCT116 proliferation % Max ([1]; 72 h, 10% serum) [%] | EC50 [1, 10] [nM] | EC50 ([1]; read-out: cellular efficacy in cell proliferation HTC116 p53 positive control cell lines) [nM] | CD (% helicity) [2] [%] | EC50 ([3]; 0% FBS, 4 h) [nM] | EC50 ([3]; 10% FBS, 16 h) [nM] | EC50 ([4]; 0% serum at 4 hours) [nM] | EC50 ([4]; 10% serum at 16 hours) [nM] | Kd [5] [nM] | EC50 ([6]; 0% FBS, 4 h) [nM] | EC50 ([6]; 10% FBS, 16 h) [nM] | solubility (in words) [7] | solubility [7] [µM] | % inhibition at maximum concentration in p53 null negative control cell line [8] [%] | logD [9] | fold improvement in HTC116 cell proliferation assay ([1]; as compared to Macrocycle 3) | p53 null Ca Ski proliferation % Max ([8]; 72 h, 10% serum) [%] | chromatographic logD [9]
CC(=O)N[C@@H](CCCCN=[N+]=[N-])C(=O)NCCC(=O)N[C@@H](CC(C)C)C(=O)N[C@H](C(=O)N[C@@H](Cc1ccccc1)C(=O)N[C@]1(C)CCCCCCC=CCCC[C@@](C)(C(=O)N[C@@H](C)C(=O)N[C@@H](C)C(=O)N[C@@H](Cc2ccccc2)C(=O)N[C@@H](C)C(=O)N[C@@H](C)C(=O)N[C@@H](Cc2ccccc2)C(N)=O)NC(=O)[C@H](CC2CCC2)NC(=O)[C@H](CCC(N)=O)NC(=O)[C@H](C)NC(=O)[C@H](Cc2c[nH]c3ccccc23)NC(=O)[C@H](Cc2ccc(O)cc2)NC(=O)[C@H](CCC(=O)O)NC1=O)[C@@H](C)O [Macrocycle 4, Ac-K(N3)-betaAla-L-T-F-X1a-E-Y-W-A-Q-Cba-X2a-AAFAAF-NH2 (olefin staple from X1a to X2a)] (Ac-[Lys(N3)][βAla]LTF[R8]EYWAQ[Cba][S5]AAFAAF-NH2; staple 6-13) | 68 | 1210 | 1220 | 45 | > 50000 | > 50000 | 36 | 237 | 27 | 34500 | > 50000 | – | – | – | – | – | – | –
CC(=O)N[C@@H](CCCCN=[N+]=[N-])C(=O)NCCC(=O)N[C@@H](CC(C)C)C(=O)N[C@H](C(=O)N[C@@H](Cc1ccccc1)C(=O)N[C@]1(C)CCCCCCC=CCCC[C@@](C)(C(=O)N[C@@H](C)C(=O)N[C@@H](C)C(=O)N[C@@H](Cc2ccccc2)C(=O)NC(C)(C)C(=O)N[C@@H](C)C(=O)N[C@@H](C)C(N)=O)NC(=O)[C@H](CC2CCC2)NC(=O)[C@H](CCC(N)=O)NC(=O)[C@H](C)NC(=O)[C@H](Cc2c[nH]c3ccccc23)NC(=O)[C@H](Cc2ccc(O)cc2)NC(=O)[C@H](CCC(=O)O)NC1=O)[C@@H](C)O [Macrocycle 8, Ac-K(N3)-betaAla-L-T-F-X1a-E-Y-W-A-Q-Cba-X2a-AAF-Aib-AA-NH2(olefinstaple from X1ato X2a)] (Ac-[Lys(N3)][βAla]LTF[R8]EYWAQ[Cba][S5]AAF[Aib]AA-NH2; staple 6-13) | – | – | – | 35 | 16700 | > 50000 | – | – | 7.4 | > 50000 | > 50000 | – | – | – | – | – | – | –
CC(=O)N[C@@H](CCCCN=[N+]=[N-])C(=O)NCCC(=O)N[C@@H](CC(C)C)C(=O)N[C@H](C(=O)N[C@@H](Cc1ccccc1)C(=O)N[C@]1(C)CCCCCCC=CCCC[C@@](C)(C(=O)N[C@@H](C)C(=O)N[C@@H](C)C(=O)N[C@@H](CCC(=O)O)C(=O)N[C@@H](C)C(=O)N[C@@H](C)C(=O)N[C@H](C)C(N)=O)NC(=O)[C@H](CC2CCC2)NC(=O)[C@H](CCC(N)=O)NC(=O)[C@H](C)NC(=O)[C@H](Cc2c[nH]c3ccccc23)NC(=O)[C@H](Cc2ccc(O)cc2)NC(=O)[C@H](CCC(=O)O)NC1=O)[C@@H](C)O [Macrocycle 10, Ac-K(N3)-betaAla-L-T-F-X1a-E-Y-W-A-Q-Cba-X2a-AAEAA-(D-Ala)-NH2(olefinstaple from X1ato X2a)] (Ac-[Lys(N3)][βAla]LTF[R8]EYWAQ[Cba][S5]AAEAA[dA]-NH2; staple 6-13) | – | – | – | – | > 50000 | > 50000 | – | – | 3.1 | – | – | excellent solubility | 154 (≈ 343 µg/mL) | −18 | 2.14 | – | – | –
CC(=O)N[C@@H](CCCCN=[N+]=[N-])C(=O)NCCC(=O)N[C@@H](CC(C)C)C(=O)N[C@H](C(=O)N[C@@H](Cc1ccccc1)C(=O)N[C@]1(C)CCCCCCC=CCCC[C@@](C)(C(=O)N[C@@H](CC(C(=O)O)C(=O)O)C(=O)N[C@@H](C)C(=O)N[C@@H](C)C(=O)N[C@@H](C)C(=O)N[C@@H](C)C(=O)N[C@@H](C)C(N)=O)NC(=O)[C@H](CC2CCC2)NC(=O)[C@H](CCC(N)=O)NC(=O)[C@H](C)NC(=O)[C@H](Cc2c[nH]c3ccccc23)NC(=O)[C@H](Cc2ccc(O)cc2)NC(=O)[C@H](CCC(=O)O)NC1=O)[C@@H](C)O [Macrocycle 11, Ac-K(N3)-betaAla-L-T-F-X1a-E-Y-W-A-Q-Cba-X2a-(Gla)AAAAA-NH2(olefinstaple from X1ato X2a)] (Ac-[Lys(N3)][βAla]LTF[R8]EYWAQ[Cba][S5][Gla]AAAAA-NH2; staple 6-13) | 73 | 790 | – | – | > 50000 | > 50000 | – | 527 | 0.32 | > 50000 | > 50000 | excellent solubility | 163 (≈ 370 µg/mL) | −18 | – | at least 2 fold | −18 | 2.25
CC(=O)N[C@@H](CCCCN=[N+]=[N-])C(=O)NCCC(=O)N[C@@H](CC(C)C)C(=O)N[C@H](C(=O)N[C@@H](Cc1ccccc1)C(=O)N[C@]1(C)CCCCCCC=CCCC[C@@](C)(C(=O)N[C@@H](C)C(=O)N[C@@H](C)C(=O)N[C@@H](C)C(N)=O)NC(=O)[C@H](CC2CCC2)NC(=O)[C@H](CCC(N)=O)NC(=O)[C@H](C)NC(=O)[C@H](Cc2c[nH]c3ccccc23)NC(=O)[C@H](Cc2ccc(O)cc2)NC(=O)[C@H](CCC(=O)O)NC1=O)[C@@H](C)O [Reference Macrocycle 1, Ac-K(N3)-betaAla-L-T-F-X1a-E-Y-W-A-Q-Cba-X2a-AAA-NH2 (olefin staple from X1a to X2a), reference compound] (Ac-[Lys(N3)][βAla]LTF[R8]EYWAQ[Cba][S5]AAA-NH2; staple 6-13) | – | – | – | – | > 50000 | – | 339 | 847 | 36 | > 50000 | – | – | 108 (≈ 211 µg/mL) | – | 2.93 | – | – | –
